{
  "source": "patent US8586551B2",
  "about": "“18-membered macrocycles and analogs thereof” (Optimer Pharmaceuticals, Inc., priority 2005, dated 2013)",
  "key": {"[1]": {"test_system": "Prevotella/Porphyromonas species", "test": "MIC against anaerobes: Prevotella/Porphyromonas", "assay_type": "cell-based", "conditions": "Prevotella/Porphyromonas species (42)", "procedure": "(§1) The in vitro activity of OPT-80 was determined against 350 anaerobes. The experimental procedure for which is outlined in Antimicrobial Agents and Chemotherapy, 2004, 48: 4430-4434, which is hereby incorporated by reference in its entirety.\n(§2) All organisms, including the 21 C. difficile strains, were separate isolates and not clonally related. All quality-control gram-negative and -positive strains recommended by NCCLS were included with each run: in every case, results (where available) were in range."}, "[2]": {"test_system": "Fusobacterium nucleatum", "test": "MIC against anaerobes: Fusobacterium nucleatum", "assay_type": "cell-based", "conditions": "Fusobacterium nucleatum (14)", "procedure": "as §1, §2"}, "[3]": {"test_system": "Fusobacterium mortiferum", "test": "MIC against anaerobes: Fusobacterium mortiferum", "assay_type": "cell-based", "conditions": "Fusobacterium mortiferum (10)", "procedure": "as §1, §2"}, "[4]": {"test_system": "Fusobacterium species, miscellaneous", "test": "MIC against anaerobes: Fusobacterium species, miscellaneous", "assay_type": "cell-based", "conditions": "miscellaneous (14)", "procedure": "as §1, §2"}, "[5]": {"test_system": "Peptostreptococcus asaccharolyticus", "test": "MIC against anaerobes: Peptostreptococcus asaccharolyticus", "assay_type": "cell-based", "conditions": "Peptostreptococcus asaccharolyticus (15)"}, "[6]": {"test_system": "Peptostreptococcus anaerobius", "test": "MIC against anaerobes: Peptostreptococcus anaerobius", "assay_type": "cell-based", "conditions": "Peptostreptococcus anaerobius (15)"}, "[7]": {"test_system": "Finegoldia magna", "test": "MIC against anaerobes: Finegoldia magna", "assay_type": "cell-based", "conditions": "Finegoldia magna (15)"}, "[8]": {"test_system": "Peptostreptococcus prevotii", "test": "MIC against anaerobes: Peptostreptococcus prevotii", "assay_type": "cell-based", "conditions": "Peptostreptococcus prevotii (3)"}, "[9]": {"test_system": "Propionibacterium acnes", "test": "MIC against anaerobes: Propionibacterium acnes", "assay_type": "cell-based", "conditions": "Propionibacterium acnes (20)"}, "[10]": {"test_system": "Eggerthella lenta", "test": "MIC against anaerobes: Eggerthella lenta", "assay_type": "cell-based", "conditions": "Eggerthella lenta (10)"}, "[11]": {"test_system": "Miscellaneous gram-positive non-spore-forming rods", "test": "MIC against anaerobes: miscellaneous gram-positive non-spore-forming rods", "assay_type": "cell-based", "conditions": "Miscellaneous gram-positive non-spore-forming rods (20)"}, "[12]": {"test_system": "Clostridium difficile", "test": "MIC against anaerobes: Clostridium difficile", "assay_type": "cell-based", "conditions": "Clostridium difficile (21)", "procedure": "as §1, §2"}, "[13]": {"test_system": "Clostridium bolteae", "test": "MIC against intestinal bacteria: Clostridium bolteae", "assay_type": "cell-based", "conditions": "Clostridium bolteae (7)"}, "[14]": {"test_system": "Clostridium clostridioforme", "test": "MIC against intestinal bacteria: Clostridium clostridioforme", "assay_type": "cell-based", "conditions": "Clostridium clostridioforme (4)", "procedure": "The in vitro activity of OPT-80 against intestinal bacteria was evaluated. The experimental procedure for which is outlined in Antimicrobial Agents and Chemotherapy, 2004, 48: 4898-4902, which is hereby incorporated by reference in its entirety.\nAntimicrobial concentration ranges were selected to encompass or surpass the levels that would be achieved in the gut (to the extent that this information is available), subject to the limitations of solubility of the drugs in the testing medium. The range of concentration of OPT-80 used during testing was 0.03 μg/ml to 1024 μg/ml.\nFor analysis, the bacteria tested were generally placed into genus, species, or other groups with at least 10 isolates. The ranges and the MICs at which 50 and 90% of isolates were inhibited were determined except for organisms with fewer than 10 strains tested, for which only the ranges are reported (Table 8)."}, "[15]": {"test_system": "All Clostridium species", "test": "MIC against intestinal bacteria: all Clostridium species", "assay_type": "cell-based", "conditions": "All Clostridium species (107)"}, "[16]": {"test_system": "Anaerobic gram-positive cocci", "test": "MIC against intestinal bacteria: anaerobic gram-positive cocci", "assay_type": "cell-based", "conditions": "Anaerobic gram-positive cocci (49)"}, "[17]": {"test_system": "Streptococcus, formerly S. milleri group", "test": "MIC against intestinal bacteria: Streptococcus, formerly S. milleri group", "assay_type": "cell-based"}, "[18]": {"test_system": "Enterococcus species", "test": "MIC against intestinal bacteria: Enterococcus species", "assay_type": "cell-based", "conditions": "Enterococcus species (21)"}, "[19]": {"test_system": "453 bacterial isolates", "test": "MIC against intestinal bacteria: total for all strains", "assay_type": "cell-based"}, "[20]": {"test_system": "C. difficile", "test": "MIC versus C. difficile strains", "conditions": "Clostridioides difficile"}, "[21]": {"test_system": "S. aureus", "test": "MIC against other microorganisms: S. aureus"}, "[22]": {"test_system": "E. faecalis", "test": "MIC against other microorganisms: E. faecalis", "conditions": "Enterococcus faecalis"}},
  "data": [
    {"compound": "CCc1c(Cl)c(O)c(Cl)c(O)c1C(=O)O[C@H]1[C@H](O)[C@H](OC)[C@H](OCC2=CC=CC[C@H](O)C(C)=C[C@H](CC)[C@@H](O[C@@H]3OC(C)(C)[C@@H](OC(=O)C(C)C)[C@H](O)[C@@H]3O)C(C)=CC(C)=CC[C@@H]([C@@H](C)O)OC2=O)O[C@@H]1C", "note": "[R-Tiacumicin B, 3-[[[6-Deoxy-4-O-(3,5-dichloro-2-ethyl-4,6-dihydroxybenzoyl)-2-O-methyl-β-D-mannopyranosyl]oxy]-methyl]-12(R)-[[6-deoxy-5-C-methyl-4-O-(2-methyl-1-oxopropyl)-β-D-lyxo-hexopyranosyl]oxy]-11(S)-ethyl-8(S)-hydroxy-18(S)-(1(R)-hydroxyethyl)-9,13,15-trimethyloxacyclooctadeca-3,5,9,13,15-pentaene-2-one]", "values": [
      {"measurement": "MIC50", "setting": "[1]", "value": "> 128", "unit": "µg/mL"},
      {"measurement": "MIC90", "setting": "[1]", "value": "> 128", "unit": "µg/mL"},
      {"measurement": "MIC50", "setting": "[2]", "value": "> 128", "unit": "µg/mL"},
      {"measurement": "MIC90", "setting": "[2]", "value": "> 128", "unit": "µg/mL"},
      {"measurement": "MIC50", "setting": "[3]", "value": "> 128", "unit": "µg/mL"},
      {"measurement": "MIC90", "setting": "[3]", "value": "> 128", "unit": "µg/mL"},
      {"measurement": "MIC50", "setting": "[4]", "value": "> 128", "unit": "µg/mL"},
      {"measurement": "MIC90", "setting": "[4]", "value": "> 128", "unit": "µg/mL"},
      {"measurement": "MIC50", "setting": "[5]; Peptoniphilus asaccharolyticus", "value": 0.5, "unit": "µg/mL"},
      {"measurement": "MIC90", "setting": "[5]; Peptoniphilus asaccharolyticus", "value": 1, "unit": "µg/mL"},
      {"measurement": "MIC range", "setting": "[5]", "value": "0.25 to 1.0", "unit": "µg/mL"},
      {"measurement": "MIC50", "setting": "[6]", "value": "< 0.016", "unit": "µg/mL"},
      {"measurement": "MIC90", "setting": "[6]", "value": "< 0.016", "unit": "µg/mL"},
      {"measurement": "MIC range", "setting": "[6]", "value": "<0.016 to 0.03", "unit": "µg/mL"},
      {"measurement": "MIC50", "setting": "[7]", "value": 1, "unit": "µg/mL"},
      {"measurement": "MIC90", "setting": "[7]", "value": 1, "unit": "µg/mL"},
      {"measurement": "MIC range", "setting": "[7]", "value": "0.25 to 2.0", "unit": "µg/mL"},
      {"measurement": "MIC range", "setting": "[8]", "value": "0.25 to 1.0", "unit": "µg/mL"},
      {"measurement": "MIC50", "setting": "[9]; Cutibacterium acnes", "value": 4, "unit": "µg/mL"},
      {"measurement": "MIC90", "setting": "[9]; Cutibacterium acnes", "value": 4, "unit": "µg/mL"},
      {"measurement": "MIC range", "setting": "[9]", "value": "0.5 to 1.0", "unit": "µg/mL"},
      {"measurement": "MIC50", "setting": "[10]", "value": "< 0.016", "unit": "µg/mL"},
      {"measurement": "MIC90", "setting": "[10]", "value": "< 0.03", "unit": "µg/mL"},
      {"measurement": "MIC range", "setting": "[10]", "value": "<0.016 to 0.06", "unit": "µg/mL"},
      {"measurement": "MIC50", "setting": "[11]", "value": "< 0.125", "unit": "µg/mL"},
      {"measurement": "MIC90", "setting": "[11]", "value": 16, "unit": "µg/mL"},
      {"measurement": "MIC range", "setting": "[11]", "value": "<0.016 to 16", "unit": "µg/mL"},
      {"measurement": "MIC50", "setting": "[12]; Clostridioides difficile", "value": "< 0.016", "unit": "µg/mL"},
      {"measurement": "MIC90", "setting": "[12]; Clostridioides difficile", "value": 0.125, "unit": "µg/mL"},
      {"measurement": "MIC range", "setting": "[12]", "value": "<0.016 to 0.25", "unit": "µg/mL"},
      {"measurement": "MIC range", "setting": "[13]", "value": "1 to 64", "unit": "µg/mL"},
      {"measurement": "MIC range", "setting": "[14]", "value": "4 to 128", "unit": "µg/mL"},
      {"measurement": "MIC50", "setting": "[15]", "value": 0.062, "unit": "µg/mL"},
      {"measurement": "MIC90", "setting": "[15]", "value": 128, "unit": "µg/mL"},
      {"measurement": "MIC50", "setting": "[16]", "value": 0.5, "unit": "µg/mL"},
      {"measurement": "MIC90", "setting": "[16]", "value": 2, "unit": "µg/mL"},
      {"measurement": "MIC50", "setting": "[17]", "value": 32, "unit": "µg/mL"},
      {"measurement": "MIC90", "setting": "[17]", "value": 32, "unit": "µg/mL"},
      {"measurement": "MIC range", "setting": "[17]; formerly S. milleri group (14)", "value": "16 to 64", "unit": "µg/mL"},
      {"measurement": "MIC50", "setting": "[18]", "value": 8, "unit": "µg/mL"},
      {"measurement": "MIC90", "setting": "[18]", "value": 8, "unit": "µg/mL"},
      {"measurement": "MIC range", "setting": "[18]", "value": "2.0 to 16", "unit": "µg/mL"},
      {"measurement": "MIC90", "setting": "[19]", "value": 1020, "unit": "µg/mL"},
      {"measurement": "MIC50", "setting": "[19]; Total for all strains (453)", "value": 8, "unit": "µg/mL"},
      {"measurement": "MIC", "setting": "[20]", "value": 0.125, "unit": "µg/mL"},
      {"measurement": "MIC", "setting": "[20]; ATCC9689", "value": 0.03, "unit": "µg/mL"},
      {"measurement": "MIC", "setting": "[20]; ATCC17857", "value": 0.03, "unit": "µg/mL"},
      {"measurement": "MIC", "setting": "[20]; ATCC43255", "value": 0.125, "unit": "µg/mL"},
      {"measurement": "MIC", "setting": "[21]; Staphylococcus aureus, ATCC29213", "value": 4, "unit": "µg/mL"},
      {"measurement": "MIC", "setting": "[21]; Staphylococcus aureus, MRSA", "value": 4, "unit": "µg/mL"},
      {"measurement": "MIC", "setting": "[21]; Strain ID # 3, S. aureus, (MRSA)", "value": 4, "unit": "µg/mL"},
      {"measurement": "MIC", "setting": "[22]; ATCC29212, Strain ID # 4, E. faecalis (ATCC 29212)", "value": 2, "unit": "µg/mL"},
      {"measurement": "MIC", "setting": "[22]; Strain ID # 5, E. faecalis Vanc. resistant", "value": 4, "unit": "µg/mL"},
      {"measurement": "MIC", "setting": "[22]; Strain ID # 6, E. faecalis Vanc. resistant", "value": 1, "unit": "µg/mL"}
    ]}
  ]
}
